Where two headings read alike, the source gives them in different places.
Tests used:
[1] = target: T1, interaction of ICAM-1 with the Leukointegrin CD18/CD11a (LFA-1) (Homo sapiens, UniProt P05107+P20701); assay: Assay to determine inhibition of LFA-1 binding to ICAM-1 (immunopurified LFA-1 on plate-bound sICAM-1, ELISA readout)
T1 construct: endogenous in cells; sICAM-1: made in house, secreted from transfected CHO DUX cells

[2] = system: LFA-1 dependent aggregation of JY cells; assay: JY cell homotypic aggregation assay (PMA-stimulated); assay type: cell-based, human; settings: Homo sapiens
Procedure, shortened: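 JY cells (2·10^5 cells/well) in RPMI 1640 with 10% FCS incubated with test compound and […]; cells settle spontaneously and aggregation is scored at various time points. Values are concentrations (μM) giving 50% inhibition of binding.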

[3] = system: cell bound form of LFA-1 (CD18, CD11a) with ICAM-1, SKW3 cells; assay: Inhibition of SKW3 cell binding to ICAM-1 (PMA-stimulated); assay type: cell-based, human; settings: Homo sapiens, read-out: Assay to Detect SKW3 Cells Binding to ICAM IC50
Procedure, shortened: (§1)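 Plates coated with sICAM-1 (40 μg/mL) or fibronectin (100 μg/mL) for 1 h; SKW3 cells in RPMI/15% FBS activated with PMA (50 μg/mL final) added with compound, 2 h at 37° C. Unbound cells washed off; value is concentration (μM) giving 50% binding inhibition.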

[4] = system: allogeneic cell transplant response, popliteal lymph node; assay: In vivo allogeneic cell transplant model (popliteal lymph node weight); settings: Mus musculus, po; mice, per os, dose at which 50% inhibition is observed; read-out: Allogeneic Cell Transplantation Assay ACT ED50
Excerpt: In vivo: Allogeneic Cell Transplant Model Purpose of Assay: The ability of cells to recognize other cells from self or from another genetically different individual (non-self) is an important property in maintaining the integrity of tissue and organ structure. The allogeneic cell transplant response is an important model for studies of transplant rejection and immunocompetence. This T-cell-mediated immune response can be induced in adult mice by the injection of lymphocytes from a histoincompatible mouse strain into the footpad . This response is characterized by T-cell proliferation which is limited to the popliteal lymph node that receives drainage from the injected footpad area. No in vitro system can completely duplicate this in vivo response. Thus, this animal model can be used to assess the ability of a test compound to suppress transplant rejection. Description of Assay Protocol: Experiments are conducted using male or female mice (20-26 grams). Any histoincompatible mouse strains suffice for donor and recipient populations. Typically DBA mice are used as donors and […] mice are used as recipients. A minimum of 1 week stabilization and conditioning period is required before use during which time the animals are maintained in accordance with the Animal Resource Center S.O.P. Each study utilizes 36 recipient mice divided into groups of 6. The tests last approximately four days. Donor mice are sacrificed by CO2 asphyxiation and spleens are removed and made into a cell suspension. The cells (1.0·10^7/metatarsal in 0.05 mL) are injected intra dermal (according to standard protocol) into the dorsal metatarsal skin of recipient mice. Four days later, the animals are sacrificed by CO2 asphyxiation and the popliteal nodes are removed and weighed. Groups of mice receiving putative immunosuppressive agents are dosed subcutaneously, intraperitoneally or orally one hour prior to cell injection and daily thereafter according to standard protocol. Student's T-test was used to determine significant differences between popliteal lymph nodes of groups of untreated mice and those mice treated with putative immunosuppressive agents (see: Kroczek, R. A.; Black, C. D. V.; Barbet, […]. Immunology, 1987, 139, 3597). Data are reported as the dose at which 50% inhibition is observed and the manner in which the compound was administered. In Table 23, the following legends are applicable: ^and=not determined. ^bpercent inhibition at 160 μg/mL. ^cno inhibition observed up to highest dose. Exact quantification not always possible due to intrinsic toxicity of compound (see MTT result). ^[…] inhibition (concentration in μM ). ^eapproximated from incomplete dose-response curve. ^fnot determined; compound is a synthesis intermediate.

[5] = system: cell bound fibronectin receptor (VLA4) with fibronectin, SKW3 cells; assay: Inhibition of SKW3 cell binding to fibronectin (selectivity counter-assay); assay type: cell-based, human
Procedure, shortened: as §1

[6] = system: human MLR, peripheral blood mononuclear cells; assay: Inhibition of the mixed lymphocyte reaction (MLR), tritiated thymidine uptake; assay type: cell-based; design: key: Data are reported as “+” or “−” at a given concentration (in μM); Data are reported as “+” or “−” at a given concentration (in μM)
Procedure: Assay to Determine Inhibition the Mixed Lymphocyte Reaction
As discussed above, ICAM-1 is necessary for effective cellular interactions during an immune response mediated through LFA-1-dependent cell adhesion. When lymphocytes from two unrelated individuals are cultured together, blast transformation and cell proliferation of the lymphocytes are observed. This response is known as a mixed lymphocyte reaction (MLR) and is analogous to the response of lymphocytes to the 10 addition of antigens or mitogens (Immunology: The Science of Self-Nonself Discrimination; Klein, J., Ed.; John Wiley & Sons: NY, 1982, pp 453-458).
This assay protocol is used to determine the effect of a test compound on the human MLR.
Description of Assay Protocol:
Peripheral blood is obtained from normal, healthy donors by venipuncture. The blood is collected in heparinized tubes and diluted 1:1 at room temperature with Puck's G (GIBCO) balanced salt solution (BSS). The blood mixture (20 mL) is layered over 15 mL of a Ficoll/Hypaque density gradient (Pharmacia, density=1.078, room temperature) and centrifuged at 1000·g for 20 minutes. The interface is then collected and washed 3 times in Puck's G. The cells are counted on a hemocytometer and resuspended in RPMI 1640 culture medium (GIBCO) containing 0.5% of gentamicin, 1 mM L-glutamine (GICO) and 5% heat inactivated (56° C., 30 min) human AB sera (Flow Laboratories) (hereafter referred to as RPMI-culture medium).
Stimulator cells (cells that have been treated with irradiation so that they are unable to proliferate) from a separate donor are cultured with the responder cells at the same concentration. Test compound is added to wells at various concentrations. The total volume per culture is 0.2 mL. Controls include compound vehicle alone (DMSO), responder cells alone, and stimulator cells alone. The culture plates are incubated at 37° C. in a 5% CO2-humidified air atmosphere for 5 days.
The wells are pulsed with 0.5 μCi of tritiated thymidine (^3HT) (New England Nuclear) for the last 18 h of culture. In some cases a two-way MLR can be performed. The protocol is the same except that the second donor's cells are not inactivated by irradiation.
The cells are harvested onto glass fiber filters using an automated multiple sample harvester (Skatron, Norway), and rinsed with water and methanol. The filters are oven dried and counted in Aquasol in a Beckman (LS-3801) liquid scintillation counter.
Data are reported as “+” or “−” at a given concentration (in μM).

[7] = values marked e approximated from incomplete dose-response curve
[8] = SKW3, values marked c: no inhibition observed up to highest dose
[9] = No inh = no inhibition observed up to highest dose, exact quantification not always possible due to intrinsic toxicity

T1 sequence (P20701 26-1170): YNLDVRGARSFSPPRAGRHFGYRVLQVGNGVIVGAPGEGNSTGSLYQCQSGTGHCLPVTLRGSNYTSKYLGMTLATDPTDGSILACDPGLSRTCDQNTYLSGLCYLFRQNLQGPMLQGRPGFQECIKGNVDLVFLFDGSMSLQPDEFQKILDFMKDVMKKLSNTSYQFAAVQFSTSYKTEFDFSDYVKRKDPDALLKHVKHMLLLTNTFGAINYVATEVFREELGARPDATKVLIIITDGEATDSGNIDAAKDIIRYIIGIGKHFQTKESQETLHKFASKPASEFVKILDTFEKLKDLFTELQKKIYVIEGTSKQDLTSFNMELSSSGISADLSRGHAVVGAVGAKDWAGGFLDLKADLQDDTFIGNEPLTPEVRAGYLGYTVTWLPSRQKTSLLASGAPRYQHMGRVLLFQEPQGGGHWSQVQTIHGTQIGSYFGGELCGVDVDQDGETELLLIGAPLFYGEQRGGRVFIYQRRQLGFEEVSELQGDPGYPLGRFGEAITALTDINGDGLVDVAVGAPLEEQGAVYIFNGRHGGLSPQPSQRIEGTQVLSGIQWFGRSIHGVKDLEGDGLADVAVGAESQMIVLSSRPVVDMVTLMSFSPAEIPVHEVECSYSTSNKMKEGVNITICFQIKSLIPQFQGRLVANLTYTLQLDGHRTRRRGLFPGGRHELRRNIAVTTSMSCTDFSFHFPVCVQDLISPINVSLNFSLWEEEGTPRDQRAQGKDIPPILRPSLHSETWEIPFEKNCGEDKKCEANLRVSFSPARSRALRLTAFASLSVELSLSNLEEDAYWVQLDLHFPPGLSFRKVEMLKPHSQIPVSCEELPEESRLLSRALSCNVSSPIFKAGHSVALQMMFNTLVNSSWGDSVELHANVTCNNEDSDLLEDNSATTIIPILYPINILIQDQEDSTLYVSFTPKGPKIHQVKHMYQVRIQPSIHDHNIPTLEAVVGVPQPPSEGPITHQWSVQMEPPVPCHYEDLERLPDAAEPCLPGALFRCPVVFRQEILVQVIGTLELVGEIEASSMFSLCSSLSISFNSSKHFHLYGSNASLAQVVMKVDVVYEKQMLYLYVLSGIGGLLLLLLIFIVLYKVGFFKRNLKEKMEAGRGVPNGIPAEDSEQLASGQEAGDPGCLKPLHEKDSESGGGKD
T1 sequence (P05107 23-769): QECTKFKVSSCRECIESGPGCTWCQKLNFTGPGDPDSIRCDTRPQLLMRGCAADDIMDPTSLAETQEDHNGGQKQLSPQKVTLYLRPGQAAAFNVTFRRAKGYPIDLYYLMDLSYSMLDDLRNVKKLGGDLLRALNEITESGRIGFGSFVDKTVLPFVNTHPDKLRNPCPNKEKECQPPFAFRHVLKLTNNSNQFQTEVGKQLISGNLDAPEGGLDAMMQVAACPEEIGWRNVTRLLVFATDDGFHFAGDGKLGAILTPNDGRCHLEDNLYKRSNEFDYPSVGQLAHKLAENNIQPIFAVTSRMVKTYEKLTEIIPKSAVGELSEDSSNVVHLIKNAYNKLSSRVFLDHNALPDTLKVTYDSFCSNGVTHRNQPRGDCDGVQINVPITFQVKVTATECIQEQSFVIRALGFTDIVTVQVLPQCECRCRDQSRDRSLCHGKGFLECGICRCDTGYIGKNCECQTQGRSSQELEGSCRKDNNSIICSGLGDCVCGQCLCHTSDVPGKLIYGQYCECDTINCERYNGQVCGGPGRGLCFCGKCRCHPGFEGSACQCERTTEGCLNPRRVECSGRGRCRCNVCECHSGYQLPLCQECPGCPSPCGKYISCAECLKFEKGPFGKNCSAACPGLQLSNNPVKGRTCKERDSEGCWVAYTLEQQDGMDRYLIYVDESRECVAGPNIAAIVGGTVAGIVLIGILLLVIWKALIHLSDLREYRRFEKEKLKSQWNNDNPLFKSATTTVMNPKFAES

Compound | melting point | Kd [1, 7] | IC50 [2] | Cellular Toxicity Assay MTT LD50 (SKW3 cells) | other results
CC1(Cc2ccc(Cl)c(Cl)c2)NC(=O)N(c2cc(Cl)cc(Cl)c2)C1=O (stereo not shown) [Example 55] | 150 to 151 °C | 200 nM | – | – | –
Cc1cc(C)cc(CC2(C)NC(=O)N(c3cc(Cl)cc(Cl)c3)C2=O)c1 (stereo not shown) [Example 50] | > 240 °C | ~17000 nM | – | – | –
CC1(Cc2ccc3c(Cl)cc(C(F)(F)F)nc3c2)NC(=O)N(c2cc(Cl)cc(Cl)c2)C1=O (stereo not shown) [Example 59] | 173 to 174 °C | 330 nM | – | – | –
COc1c(F)c(F)c(CC2(C)NC(=O)N(c3cc(Cl)cc(Cl)c3)C2=O)c(F)c1F (stereo not shown) [Example 61] | 122 to 123 °C | 2350 nM | – | – | –
CC(=O)N1C(=O)N(c2cc(Cl)cc(Cl)c2)C(=O)[C@@]1(C)Cc1ccc(-c2cccnc2)cc1 [Example 125] | – | 110 nM | 400 nM | >400 µM | IC50 [3, 8]: 1000 to 3000 nM; ED50 [4]: ~90 mg/kg; Assay to Detect SKW3 Cells Binding to FIBRONECTIN IC50 ([5]; values marked c: no inhibition observed up to highest dose): No inh^c
CC1(Cc2ccc(F)c(C(F)(F)F)c2)NC(=O)N(c2cc(Cl)cc(Cl)c2)C1=O (stereo not shown) [Example 69] | 168 to 170 °C | ~70000 nM | – | – | –
CC1(Cc2cccc(SC(F)(F)F)c2)NC(=O)N(c2cc(Cl)cc(Cl)c2)C1=O (stereo not shown) [Example 65] | 170 to 171 °C | 1320 nM | – | – | –
CC1(Cc2ccc(C(F)(F)F)c(F)c2)NC(=O)N(c2cc(Cl)cc(Cl)c2)C1=O (stereo not shown) [Example 62] | 67 to 69 °C | 160 nM | – | – | –
CC1(Cc2ccc(SC(F)(F)F)cc2)NC(=O)N(c2cc(Cl)cc(Cl)c2)C1=O (stereo not shown) [Example 60] | 133 to 134 °C | 230 nM | – | – | –
CC1(Cc2ccc(-c3ccccc3)cc2)NC(=O)N(c2cc(Cl)cc(Cl)c2)C1=O (stereo not shown) [Example 49] | 61 to 63 °C | 260 nM | – | – | –
CC1(Cc2ccc(C(F)(F)F)c(F)c2F)NC(=O)N(c2cc(Cl)cc(Cl)c2)C1=O (stereo not shown) [Example 67] | 163 to 164 °C | 3540 nM | – | – | –
CC1(Cc2ccc(F)c(F)c2)NC(=O)N(c2cc(Cl)cc(Cl)c2)C1=O (stereo not shown) [Example 54] | 117 to 118 °C | 420 nM | – | – | –
CN1C(=O)N(c2cc(Cl)cc(Cl)c2)C(=O)[C@@]1(C)Cc1ccc(Br)cc1 [Example 271] | – | – | 100 nM | 250 to 500 µM | IC50 ([3]; SKW3): 3000 nM; ED50 [4]: ~20 mg/kg; Assay to Detect SKW3 Cells Binding to FIBRONECTIN IC50 [5, 9]: No inh^c
CCCN1C(=O)N(c2cc(Cl)cc(Cl)c2)C(=O)[C@]1(C)Cc1ccc(Br)cc1 [Example 276] | – | – | 500 nM | 375 µM | IC50 ([3]; SKW3): 10000 nM; Mixed Lymphocyte Reaction MLR +/− ([6]; at 25 μM): +(25); Assay to Detect SKW3 Cells Binding to FIBRONECTIN IC50 [5, 9]: No inh^c; Kd [1]: 1110 nM
C[C@@]1(Cc2ccc(Br)cc2)C(=O)N(c2cc(Cl)cc(Cl)c2)C(=O)N1CCO [Example 225] | – | – | 200 nM | 50 to 100 µM | IC50 ([3]; SKW3): 3000 to 4000 nM; Mixed Lymphocyte Reaction MLR +/− ([6]; at 25 μM): +(25); Assay to Detect SKW3 Cells Binding to FIBRONECTIN IC50 [5, 9]: No inh^c; Kd [1]: 630 nM
CC1(Cc2ccc(Cl)s2)NC(=O)N(c2cc(Cl)cc(Cl)c2)C1=O (stereo not shown) [Example 64] | 55 to 56 °C | 1450 nM | – | – | –
CC1(Cc2ccccc2OC(F)(F)F)NC(=O)N(c2cc(Cl)cc(Cl)c2)C1=O (stereo not shown) [Example 66] | 153 to 155 °C | 2850 nM | – | – | –
C[C@@]1(Cc2ccc(Br)cc2)C(=O)N(c2cc(Cl)cc(Cl)c2)C(=O)N1CCCC(=O)O [Example 227] | – | – | 3100 nM | 200 to 400 µM | IC50 ([3]; SKW3): 25000 nM; Mixed Lymphocyte Reaction MLR +/− ([6]; at 50 μM): +(50); Assay to Detect SKW3 Cells Binding to FIBRONECTIN IC50 [5, 9]: No inh^c; Kd [1]: 180 nM
CN1C(=O)N(c2cc(C(F)(F)F)cc(C(F)(F)F)c2)C(=O)C1(C)Cc1ccccc1 (stereo not shown) [Example 83] | – | 300 nM | 6000 nM | 250 to 500 µM | IC50 [3, 8]: 13000 to 25000 nM; Mixed Lymphocyte Reaction MLR +/− ([6]; at 50 μM): +(50); IC50 ([5]; values marked c: no inhibition observed up to highest dose, read-out: Assay to Detect SKW3 Cells Binding to FIBRONECTIN IC50): > 200000 nM

From patent USRE38132E1, “Phenylpyrrolidines, phenylimidazolidines,3-phenyl-1,3-oxizolidines and 3-phenyl-1,3-thiazolidines and their use in the treatment of inflammatory disease” (Boehringer Ingelheim Pharmaceuticals, Inc., priority 1997, dated 2003)
